Data taken from ChEMBL document CHEMBL1201862, “PubChem BioAssay data set” (2004).
Active and inactive are the calls of the source.

What was measured:
Vero = test: viability loss in Vero cells – cell-based, plate reader, cherry-pick samples, cytotoxicity control, dose response (AID 687020); type: functional; settings: Chlorocebus sabaeus
[1] = target: FAD-linked sulfhydryl oxidase ALR (Homo sapiens, UniProt P55789); test: ALR-catalysed DTT oxidation blockers – biochemical, H2O2 detection, luminescence, cherry-pick, dose response (AID 493248)
[2] = target: SWI/SNF-related matrix-associated actin-dependent regulator of chromatin subfamily A member 2 (Homo sapiens, UniProt P51531); test: Luminescence-based cell-based high throughput dose response assay to identify activators of the function of SWI/SNF related, matrix associated, actin dependent regulator of chromatin, subfamily a, member 2 (SMARCA2, BRM).; type: functional
[3] = Counterscreen for activators of the function of SWI/SNF related, matrix associated, actin dependent regulator of chromatin, subfamily a, member 2 (SMARCA2, BRM): Luminescence-based cell-based high throughput dose response assay to identify non-selective compounds using the VP16 reporter assay.; type: functional
[4] = T. cruzi growth inhibition in host cells, dose response, cell-based, plate reader, dry powder, set 2 (AID 652275); type: functional
[5] = anti-trypanosomal activity in BESM host cells – imaging, CA-I/72 strain, bovine embryo skeletal muscle, dry powder, dose response (AID 651885); type: functional, cell-based
[6] = cytotoxicity in HEK293 background cells – cell-based, dry powder, set 2, counter-screen for EBV LMP1 inhibitor project, dose response (AID 624374); type: functional
BHK-21 = test: viability loss in BHK-21 cells – cell-based, plate reader, cherry-pick samples, cytotoxicity control, dose response (AID 687030); type: functional; settings: Mesocricetus auratus
[7] = target: T1, Sentrin-specific protease 8 (Homo sapiens, UniProt Q96LD8); type: functional
T1 sequence (Q96LD8 whole entry): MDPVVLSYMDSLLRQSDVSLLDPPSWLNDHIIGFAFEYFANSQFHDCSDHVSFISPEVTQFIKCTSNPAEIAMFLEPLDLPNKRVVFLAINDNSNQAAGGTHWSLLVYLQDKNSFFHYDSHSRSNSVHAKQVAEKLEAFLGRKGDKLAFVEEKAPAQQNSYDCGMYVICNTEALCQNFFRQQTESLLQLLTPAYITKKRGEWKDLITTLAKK

[8] = target: T1, Sentrin-specific protease 8; type: functional; remark: listed apart in the source
[9] = activation of miR-122 Renilla sensor silencing – cell-based, Huh7 psiCHECK-miR122, Renilla luciferase, cherry-picked, dose response (AID 651956); type: functional;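 further: huh7 hepatoma cells stably carrying a psiCHECK-2 miR-122 sensor plasmid; renilla luciferase signal reporting endogenous miR-122 activity after 48 h compound exposure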
[10] = TNFa-induced NF-kB reporter signal decrease – HEK293 LMP1 reporter cells, dry powder, set 2, selectivity assay for EBV LMP1 NF-kB inhibitor project, dose response (AID 624369); type: functional
Troponin, cardiac muscle = Troponin, cardiac muscle (Homo sapiens, UniProt P19429+P45379+P63316); test: Fluorescence-based biochemical high throughput dose response assay for activators of the calcium sensitivity of cardiac Regulated Thin Filaments (RTF). [Related pubchem assays (depositor defined):AID493008, AID493018, AID504382, AID504383]; type: protein-complex assay
Protein S100-A4 = Protein S100-A4 (Homo sapiens, UniProt P26447); test: human S100A4 peptide interaction inhibition curves – biochemical, fluorescence polarization, cherry-picked hits, dose response (AID 687001); type: functional
[11] = viability of uninfected HEp-2 cells – cell-based, HTS, cytotoxicity control for RSV inhibitor project, dose response (AID 2410); type: functional; settings: human respiratory syncytial virus
[12] = system: Streptococcus sp. 'group A'; test: Streptococcus pyogenes SK(-)GAS viability under kanamycin – luminescence, BacTiterGlo, confirmation, counter-screen for streptokinase expression inhibitor project, dose response (AID 1900); type: functional, organism-based
Streptokinase A = target: T2, Streptokinase A (Streptococcus pyogenes serotype M1, UniProt P10520); test: viability-normalized secreted streptokinase activity reduction – plasminogen activation absorbance, OD405, dose response (AID 1914); type: functional, Streptococcus pyogenes M1 GAS;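 further: secreted streptokinase activity via plasminogen activation per viability signal from cell pellet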
T2 sequence (P10520 whole entry): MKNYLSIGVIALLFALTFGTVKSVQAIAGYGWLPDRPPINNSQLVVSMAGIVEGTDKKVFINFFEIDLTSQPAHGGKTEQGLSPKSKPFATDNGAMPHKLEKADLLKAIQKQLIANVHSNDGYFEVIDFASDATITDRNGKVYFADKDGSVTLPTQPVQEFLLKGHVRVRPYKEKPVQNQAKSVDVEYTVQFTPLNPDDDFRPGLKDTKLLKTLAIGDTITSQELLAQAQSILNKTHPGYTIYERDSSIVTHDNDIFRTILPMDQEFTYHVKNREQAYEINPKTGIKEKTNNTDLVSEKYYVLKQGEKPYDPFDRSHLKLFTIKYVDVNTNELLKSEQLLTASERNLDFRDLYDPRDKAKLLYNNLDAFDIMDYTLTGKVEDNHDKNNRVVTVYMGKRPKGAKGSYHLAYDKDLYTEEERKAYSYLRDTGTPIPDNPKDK

[13] = target: Induced myeloid leukemia cell differentiation protein Mcl-1 (Homo sapiens, UniProt Q07820); type: functional
Streptococcus = test: GAS UMAA2166 growth inhibition – luminescence, BacTiterGlo, counter-screen for streptokinase expression inhibitor project, dose response (AID 1915); type: functional, organism-based;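 further: potency for reduction of bacterial viability or growth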
[14] = target: T3, Small ubiquitin-related modifier 2 (Homo sapiens, UniProt P61956); test: disruption of SUMO2 interaction with SIM peptide – biochemical, fluorescence polarization, uHTS hits, selectivity assay for SUMO1 interaction inhibitor project, dose response (AID 624385); type: functional; settings: read-out: IC50_Mean
[15] = target: T4, Small ubiquitin-related modifier 1 (Homo sapiens, UniProt P63165); test: SUMO1 protein interaction blockers, potency – biochemical, fluorescence polarization, uHTS hits, dose response (AID 624382); type: functional; settings: read-out: IC50_Mean
[16] = target: T3, Small ubiquitin-related modifier 2; test: SUMO2 binding disruption by SUMO1 hits – biochemical, FRET, human SUMO2, uHTS hits, selectivity assay for SUMO1 interaction inhibitor project, dose response (AID 624384); type: functional; settings: read-out: IC50_Mean
[17] = target: T4, Small ubiquitin-related modifier 1; test: SUMO1 protein-protein binding blockers, potency – biochemical, FRET, dose response (AID 624383); type: functional; settings: read-out: IC50_Mean
Coagulation factor XII = target: T5, Coagulation factor XII (Homo sapiens, UniProt P00748); type: functional;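 further: activated factor XIIa alpha cleaving a fluorogenic AMC peptide substrate; inhibitor potency from loss of enzyme activity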
T5 sequence (P00748 whole entry): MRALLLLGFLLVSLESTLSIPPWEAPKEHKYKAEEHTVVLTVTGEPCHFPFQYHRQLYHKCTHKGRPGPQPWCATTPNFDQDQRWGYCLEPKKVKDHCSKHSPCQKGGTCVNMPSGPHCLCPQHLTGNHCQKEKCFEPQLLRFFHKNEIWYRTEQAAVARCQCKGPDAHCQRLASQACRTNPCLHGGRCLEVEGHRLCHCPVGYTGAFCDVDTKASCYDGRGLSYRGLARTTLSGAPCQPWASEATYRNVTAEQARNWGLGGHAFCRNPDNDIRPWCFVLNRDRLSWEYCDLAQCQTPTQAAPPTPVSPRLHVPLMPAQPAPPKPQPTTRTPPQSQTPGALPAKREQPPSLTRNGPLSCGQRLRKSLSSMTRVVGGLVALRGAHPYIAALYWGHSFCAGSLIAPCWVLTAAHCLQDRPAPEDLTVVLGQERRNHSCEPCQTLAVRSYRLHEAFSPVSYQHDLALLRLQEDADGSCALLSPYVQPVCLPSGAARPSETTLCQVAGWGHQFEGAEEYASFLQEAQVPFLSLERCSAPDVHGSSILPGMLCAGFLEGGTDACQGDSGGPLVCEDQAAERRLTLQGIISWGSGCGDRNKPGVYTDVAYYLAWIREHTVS

HeLa = test: ATP-based viability loss in HeLa cells – cell-based, CellTiter-Glo luminescence, cherry-pick samples, cytotoxicity control for MITF activator project, dose response (AID 540259); type: functional; settings: Homo sapiens
[18] = target: T6, Methionyl-tRNA synthetase, putative (Trypanosoma brucei brucei, UniProt Q38C91); type: functional, Trypanosoma brucei brucei strain 927/4 GUTat10.1
[19] = Counterscreen for inhibitors of Trypanosoma brucei methionyl tRNA synthetase (MetRS): Luminescence-based cell-based high throughput dose response assay to identify compounds that are cytotoxic to Jurkat human T lymphocyte cells.; type: functional
[20] = target: T6, Methionyl-tRNA synthetase, putative; type: functional, Trypanosoma brucei brucei strain 927/4 GUTat10.1; remark: listed apart in the source
[21] = microbe, parasite or virus in culture; type: functional; settings: Mycobacterium tuberculosis
[22] = target: T7, Corticotropin-releasing factor receptor 2/Corticotropin-releasing factor-binding protein (Homo sapiens, UniProt P24387+Q13324); test: Dose Response confirmation of uHTS hits for small molecule antagonists of the CRF-binding protein and CRF-R2 receptor complex.; type: functional; settings: read-out: IC50_Mean
T7 sequence (Q13324 whole entry): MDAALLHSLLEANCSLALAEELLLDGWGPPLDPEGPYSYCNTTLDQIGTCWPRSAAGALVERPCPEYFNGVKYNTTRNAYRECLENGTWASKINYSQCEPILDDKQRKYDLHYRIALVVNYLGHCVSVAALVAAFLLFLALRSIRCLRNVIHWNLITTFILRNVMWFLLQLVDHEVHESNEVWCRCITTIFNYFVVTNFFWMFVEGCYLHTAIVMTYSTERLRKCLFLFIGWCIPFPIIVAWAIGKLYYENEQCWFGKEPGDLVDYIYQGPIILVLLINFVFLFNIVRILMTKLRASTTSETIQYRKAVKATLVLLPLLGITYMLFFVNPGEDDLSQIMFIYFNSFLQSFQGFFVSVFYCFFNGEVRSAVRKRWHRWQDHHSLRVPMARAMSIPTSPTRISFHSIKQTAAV
T7 sequence (P24387 whole entry): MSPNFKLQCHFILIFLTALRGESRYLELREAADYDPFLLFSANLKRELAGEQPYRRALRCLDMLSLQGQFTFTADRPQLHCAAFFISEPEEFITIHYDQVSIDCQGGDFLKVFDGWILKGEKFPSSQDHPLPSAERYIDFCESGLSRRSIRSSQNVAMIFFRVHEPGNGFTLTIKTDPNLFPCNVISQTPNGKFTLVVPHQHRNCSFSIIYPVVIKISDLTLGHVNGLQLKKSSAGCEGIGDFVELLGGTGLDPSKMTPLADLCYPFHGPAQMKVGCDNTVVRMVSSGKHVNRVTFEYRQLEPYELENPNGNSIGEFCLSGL

[23] = target: T7, Corticotropin-releasing factor receptor 2/Corticotropin-releasing factor-binding protein; test: activators of CRF receptor 2 with binding protein – uHTS hits, confirmation (AID 602473); type: functional; settings: read-out: EC50_Mean
[24] = blockers of CRF-binding protein–CRF-R2 complex – cell-based, uHTS hits, 384-well, dose response (AID 651639); type: functional, Homo sapiens; settings: read-out: IC50_Mean
[25] = Trypanosoma cruzi growth suppression in host cells – NIH3T3 host cells, beta-gal luminescence, confirmation (AID 2044); type: functional, cell-based;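 further: intracellular parasites grown in NIH/3T3 mouse fibroblasts as host cells; luminescent beta-galactosidase reporter signal from transgenic T. cruzi replicating inside host cells; inhibitors lower the luminescence signal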
[26] = NIH3T3 cell viability loss – ATP luminescence, mouse fibroblasts, counter-screen, dose response (AID 2010); type: functional, cell-based;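 further: cells exposed to compound for about 90 hours before reading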
[27] = target: Photoreceptor-specific nuclear receptor (Homo sapiens, UniProt Q9Y5X4); type: functional, cell-based;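 further: CHO-S cells with Gal4-NCOR and VP16-NR2E3 two-hybrid luciferase reporter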
[28] = target: Apoptotic protease-activating factor 1 (Homo sapiens, UniProt O14727); type: functional
[29] = target: Histone-lysine N-methyltransferase NSD2 (Homo sapiens, UniProt O96028); type: biochemical

COc1ccc(CC(=O)NCC2CCCN(Cc3ccc(OC(F)(F)F)cc3)C2)cc1 (stereo not given)
AC50 (Vero): 17.1 µM (active)

COc1ccc(-n2nnnc2S(=O)(=O)Cc2ccc(C(=O)O)cc2)cc1
AC50 [1]: 38 nM (active)
EC50 [2]: > 91.2 µM (inactive)
EC50 [3]: > 91.2 µM (inactive)

C[C@@H]1CN([C@@H](C)CO)C(=O)c2cccc(NC(=O)c3cnccn3)c2O[C@H]1CN(C)Cc1ccc(Oc2ccccc2)cc1
AC50 [4]: 1.96 µM (active)
IC50 [5]: > 20 µM (inactive)

Cc1noc(C)c1S(=O)(=O)Nc1ccc2c(c1)C(=O)N([C@@H](C)CO)C[C@H](C)[C@H](CN(C)Cc1ccc(C(F)(F)F)cc1)OCCCC[C@H](C)O2
AbsAC35 [6]: 149.08 µM

NNC(=O)c1ccc(-c2ccccc2F)cc1
AC50 (BHK-21): 19.3 µM (active)

CC(NC(=O)COC(=O)c1ccc([N+](=O)[O-])o1)c1ccccc1 (stereo not given)
IC50 [7]: 7.54 µM (active)
IC50 [8]: 11.8 µM (active)

C[C@H]1CN([C@@H](C)CO)C(=O)c2cc(C#Cc3ccccc3F)cnc2O[C@@H]1CN(C)C(=O)C1CCCCC1
AC50 [9]: 565 nM (active)
AbsAC35 [10]: 66.69 µM

Cc1ccc(N2C3=C(C(=O)CC(C)(C)C3)C(c3cn(C)nc3C)C3=C2CC(C)(C)CC3=O)cc1
EC50 (Troponin, cardiac muscle): 6.28 µM (active)
AC50 (Protein S100-A4): 2.04 µM (active)

COc1ccc(O)c(C(=O)c2cc(SCC(=O)O)c3nc4sc5c(c4c(=O)n3c2)CCCC5)c1
CC50 [11]: 29.1 µM (active)
EC50 [12]: 2.67 µM (active)
EC50 (Streptokinase A): 16.4 µM (inconclusive)
IC50 [13]: 1.49 µM (active)
EC50 (Streptococcus): 18.5 µM (inconclusive)
IC50 [14]: 6.24 µM (active)
IC50 [15]: 2.14 µM (active)
IC50 [16]: 46.2 µM (inactive)
IC50 [17]: 51.6 µM (inactive)

O=C(Cn1c(/C=C/c2ccccc2)nc2ccccc21)Nc1ccc(F)cc1
IC50 (Coagulation factor XII): > 50 µM (inactive)
AC50 (HeLa): 301 µM (active)
IC50 [18]: 12.2 µM (inactive)
IC50 [19]: 83.3 µM (inactive)
IC50 [20]: 8.74 µM (active)

Cc1cccc(N(C(=O)c2nsc(Cl)c2Cl)C(C(=O)NC2CCCC2)c2ccc(O)cc2)c1C (stereo not given)
CC50 [21]: 39 µM (active)
IC50 [22]: 6.4 µM (active)
EC50 [23]: > 53 µM (inactive)
IC50 [24]: > 20 µM (inactive)

CCc1nnc(NC(=O)c2ccc(S(=O)(=O)N3CCCc4ccccc43)cc2)o1
EC50 [12]: 1.21 µM (active)
EC50 (Streptokinase A): > 150 µM (not active)
EC50 [25]: 2.19 µM (active)
EC50 [26]: 5.54 µM (active)
EC50 (Streptococcus): 13.3 µM (active)
IC50 [27]: 4.33 µM (active)

O=C1C(Cl)=C(NCCN2CCOCC2)C(=O)c2ccccc21
IC50 [28]: 22 µM (active)
AC50 [29]: 10.8 µM (active)
